Assay results taken from ChEMBL document CHEMBL3045313, “Reduced Lantadenes A and B: semi-synthetic synthesis, selective cytotoxicity, apoptosis induction and inhibition of NO, TNF- production in HL-60 cells” (Med Chem Res, 2013).
Activity calls are given as the source filed them. The rule behind the calls is not given here.

What was measured:
HL-60 [1] = experiment: Inhibition of nitrite production in Homo sapiens (human) HL60 cells at 5 to 15 uM after 12 hr by Griess assay; type: functional, cell-based
Vero = experiment: Cytotoxicity against Chlorocebus aethiops (African green monkey) Vero cells assessed as growth inhibition after 48 hr by MTT assay; type: cell-based; conditions: Chlorocebus sabaeus
HL-60 [2] = experiment: Cytotoxicity against Homo sapiens (human) HL60 cells assessed as growth inhibition after 48 hr by MTT assay; type: functional, cell-based; conditions: HL-60, 48 h
MCF7 = experiment: Cytotoxicity against Homo sapiens (human) MCF7 cells assessed as growth inhibition after 48 hr by MTT assay; type: functional, cell-based; conditions: MCF7, 48 h
HSC-2 = experiment: Cytotoxicity against Homo sapiens (human) HSC2 cells assessed as growth inhibition after 48 hr by MTT assay; type: functional, cell-based; conditions: HSC-2, 48 h
HCT-116 = experiment: Cytotoxicity against Homo sapiens (human) HCT116 cells assessed as growth inhibition after 48 hr by MTT assay; type: functional, cell-based; conditions: HCT-116, 48 h
HL-60 [3] = experiment: Cell cycle arrest in Homo sapiens (human) HL60 cells assessed as accumulation at G0/G1 phase at 15 uM after 3 hr by propidium iodide staining-based FACS flow cytometric analysis (reference value: 36.2 +/- 2.4%); type: functional
HL-60 [4] = experiment: Cell cycle arrest in Homo sapiens (human) HL60 cells assessed as accumulation at sub-G1 phase at 15 uM after 12 hr by propidium iodide staining-based FACS flow cytometric analysis (reference value: 0.1%); type: functional
HL-60 [5] = experiment: Cell cycle arrest in Homo sapiens (human) HL60 cells assessed as accumulation at sub-G1 phase at 15 uM after 6 hr by propidium iodide staining-based FACS flow cytometric analysis (reference value: 0.1%); type: functional
HL-60 [6] = experiment: Cell cycle arrest in Homo sapiens (human) HL60 cells assessed as accumulation at sub-G1 phase at 15 uM after 9 hr by propidium iodide staining-based FACS flow cytometric analysis (reference value: 0.1%); type: functional
HL-60 [7] = experiment: Cell cycle arrest in Homo sapiens (human) HL60 cells assessed as accumulation at sub-G1 phase at 15 uM after 3 hr by propidium iodide staining-based FACS flow cytometric analysis (reference value: 0.1%); type: functional
HL-60 [8] = experiment: Induction of apoptosis in Homo sapiens (human) HL60 cells assessed as appearance of apoptotic bodies at 15 uM after 24 hr by hoechst 33258 staining-based fluorescence microscopic analysis relative to control; type: functional, cell-based
HL-60 [9] = experiment: Cell cycle arrest in Homo sapiens (human) HL60 cells assessed as accumulation at G2/M phase at 15 uM after 9 hr by propidium iodide staining-based FACS flow cytometric analysis (reference value: 9 +/- 1.2%); type: functional
HL-60 [10] = experiment: Induction of apoptosis in Homo sapiens (human) HL60 cells assessed as caspase 3 activation at 15 uM after 24 hr by colorimetric analysis; type: functional, cell-based
HL-60 [11] = experiment: Upregulation of bax expression in Homo sapiens (human) HL60 cells at 15 uM after 4 hr by RT-PCR analysis; type: functional, cell-based
HL-60 [12] = experiment: Downregulation of NF-kappaB expression in Homo sapiens (human) HL60 cells at 15 uM after 4 hr by RT-PCR analysis; type: functional, cell-based
HL-60 [13] = experiment: Downregulation of bcl-2 expression in Homo sapiens (human) HL60 cells at 15 uM after 4 hr by RT-PCR analysis; type: functional, cell-based
HL-60 [14] = experiment: Upregulation of caspase-3 expression in Homo sapiens (human) HL60 cells at 15 uM after 4 hr by RT-PCR analysis; type: functional, cell-based
HL-60 [15] = experiment: Downregulation of iNOS expression in Homo sapiens (human) HL60 cells at 15 uM after 4 hr by RT-PCR analysis relative to control; type: functional, cell-based
HL-60 [16] = experiment: Downregulation of iNOS expression in Homo sapiens (human) HL60 cells after 12 hr by scanning densitometric analysis; type: functional, cell-based
HL-60 [17] = experiment: Inhibition of TNFalpha production in Homo sapiens (human) HL60 cells after 6 hr by ELISA; type: functional, cell-based
HL-60 [18] = experiment: Inhibition of nitrite production in Homo sapiens (human) HL60 cells after 12 hr by Griess assay; type: functional, cell-based
HL-60 [19] = experiment: Induction of apoptosis in Homo sapiens (human) HL60 cells assessed as DNA fragmentation at 15 uM after 24 hr by hoechst 33258 staining-based fluorescence microscopic analysis relative to control; type: functional, cell-based
HL-60 [20] = experiment: Cell cycle arrest in Homo sapiens (human) HL60 cells assessed as accumulation at G2/M phase at 15 uM after 6 hr by propidium iodide staining-based FACS flow cytometric analysis (reference value: 9 +/- 1.2%); type: functional
HL-60 [21] = experiment: Cell cycle arrest in Homo sapiens (human) HL60 cells assessed as accumulation at G2/M phase at 15 uM after 3 hr by propidium iodide staining-based FACS flow cytometric analysis (reference value: 9 +/- 1.2%); type: functional
HL-60 [22] = experiment: Cell cycle arrest in Homo sapiens (human) HL60 cells assessed as accumulation at S phase at 15 uM after 12 hr by propidium iodide staining-based FACS flow cytometric analysis (reference value: 56.8 +/- 2.4%); type: functional
HL-60 [23] = experiment: Cell cycle arrest in Homo sapiens (human) HL60 cells assessed as accumulation at S phase at 15 uM after 9 hr by propidium iodide staining-based FACS flow cytometric analysis (reference value: 56.8 +/- 2.4%); type: functional
HL-60 [24] = experiment: Cell cycle arrest in Homo sapiens (human) HL60 cells assessed as accumulation at S phase at 15 uM after 6 hr by propidium iodide staining-based FACS flow cytometric analysis (reference value: 56.8 +/- 2.4%); type: functional
HL-60 [25] = experiment: Cell cycle arrest in Homo sapiens (human) HL60 cells assessed as accumulation at S phase at 15 uM after 3 hr by propidium iodide staining-based FACS flow cytometric analysis (reference value: 56.8 +/- 2.4%); type: functional
HL-60 [26] = experiment: Cell cycle arrest in Homo sapiens (human) HL60 cells assessed as accumulation at G0/G1 phase at 15 uM after 12 hr by propidium iodide staining-based FACS flow cytometric analysis (reference value: 36.2 +/- 2.4%); type: functional
HL-60 [27] = experiment: Cell cycle arrest in Homo sapiens (human) HL60 cells assessed as accumulation at G0/G1 phase at 15 uM after 9 hr by propidium iodide staining-based FACS flow cytometric analysis (reference value: 36.2 +/- 2.4%); type: functional
HL-60 [28] = experiment: Cell cycle arrest in Homo sapiens (human) HL60 cells assessed as accumulation at G0/G1 phase at 15 uM after 6 hr by propidium iodide staining-based FACS flow cytometric analysis (reference value: 36.2 +/- 2.4%); type: functional
HL-60 [29] = experiment: Cell cycle arrest in Homo sapiens (human) HL60 cells assessed as accumulation at G2/M phase at 15 uM after 12 hr by propidium iodide staining-based FACS flow cytometric analysis (reference value: 8.2 +/- 0.4%)

| SMILES | IC50 (Vero) [µM] | IC50 (HL-60 [2]) [µM] | IC50 (MCF7) [µM] | IC50 (HSC-2) [µM] | IC50 (HCT-116) [µM] | Activity (HL-60 [3]) [%] | Activity (HL-60 [4]) [%] | Activity (HL-60 [5]) [%] | Activity (HL-60 [7]) [%] | Activity (HL-60 [8]) | Activity (HL-60 [9]) [%] | Activity (HL-60 [10]) | Activity (HL-60 [11]) | Activity (HL-60 [12]) | Activity (HL-60 [13]) | Activity (HL-60 [14]) | Activity (HL-60 [15]) | Activity (HL-60 [16]) | inhibition (HL-60 [17]) | inhibition (HL-60 [18]) | further results |
| --- | --- | --- | --- | --- | --- | --- | --- | --- | --- | --- | --- | --- | --- | --- | --- | --- | --- | --- | --- | --- | --- |
| CNC(=N)NCCC[C@H](N)C(=O)O | – | – | – | – | – | – | – | – | – | – | – | – | – | – | – | – | – | – | – | – | inhibition (HL-60 [1]): Active |
| C/C=C(/C)C(=O)O[C@@H]1CC(C)(C)C[C@H]2C3=CC[C@@H]4[C@@]5(C)CCC(=O)C(C)(C)[C@@H]5CC[C@@]4(C)[C@]3(C)CC[C@@]12C(=O)O [LANTADENE A] | > 50 | 19.3 | 25.8 | 50.7 | 13.4 | – | – | – | – | – | – | – | – | – | – | – | – | – | – | – | – |
| CC(C)=CC(=O)O[C@@H]1CC(C)(C)C[C@@H]2C3=CC[C@@H]4[C@@]5(C)CCC(=O)C(C)(C)[C@@H]5CC[C@@]4(C)[C@]3(C)CC[C@]21C(=O)O [LANTADENE B] | > 50 | 19.1 | 81.4 | 43 | 13.2 | – | – | – | – | – | – | – | – | – | – | – | – | – | – | – | – |
| C/C=C(/C)C(=O)O[C@@H]1CC(C)(C)C[C@H]2C3=CC[C@@H]4[C@@]5(C)CC[C@H](O)C(C)(C)[C@@H]5CC[C@@]4(C)[C@]3(C)CC[C@@]12C(=O)O [Reduced Lantadene A] | > 50 | 1.5 | 6 | 6.1 | 1.2 | 34.4 | 3.2 | 0.4 | 0.2 | Active | 20.8 | Active | Active | Active | Active | Active | Active | Dose-dependent effect | Dose-dependent effect | Dose-dependent effect | Activity (HL-60 [6]): 1.2%; Activity (HL-60 [19]): Dose-dependent effect; Activity (HL-60 [20]): 15.8%; Activity (HL-60 [21]): 8.4%; Activity (HL-60 [22]): 44.8%; Activity (HL-60 [23]): 63.6%; Activity (HL-60 [24]): 64.2%; Activity (HL-60 [25]): 57%; Activity (HL-60 [26]): 15.4%; Activity (HL-60 [27]): 14%; Activity (HL-60 [28]): 20.8%; Activity (HL-60 [29]): 42% |
| CC(C)=CC(=O)O[C@@H]1CC(C)(C)C[C@H]2C3=CC[C@@H]4[C@@]5(C)CC[C@H](O)C(C)(C)[C@@H]5CC[C@@]4(C)[C@]3(C)CC[C@@]12C(=O)O [Reduced Lantadene B] | > 50 | 2.1 | 5.2 | 6.4 | 1.8 | 32.8 | 3.4 | 0.5 | 0.3 | Active | 19.9 | Active | Active | Active | Active | Active | Active | Dose-dependent effect | Dose-dependent effect | Dose-dependent effect | Activity (HL-60 [19]): Dose-dependent effect; Activity (HL-60 [20]): 14.8%; Activity (HL-60 [21]): 7.4%; Activity (HL-60 [22]): 42.1%; Activity (HL-60 [23]): 61.6%; Activity (HL-60 [24]): 62.1%; Activity (HL-60 [25]): 55.1%; Activity (HL-60 [26]): 13.9%; Activity (HL-60 [27]): 12.6%; Activity (HL-60 [28]): 18.2%; Activity (HL-60 [29]): 40.8% |
